These are literature values, as cited in patent US20100209419A1, “Method and formulation for treating adverse biological conditions” (priority 2008, published 2010).

SMILES strings stand for the structures.

For this series the following is noted: at 79° F.

In the case of `CS(C)(=O)=O` [MSM, methylsulfonylmethane], the water solubility is recorded as 34 % w/v.
